Assay results reported in patent publication US8338151B2, “Method for creating intracellular artificial nanostructures in situ” (The Hong Kong University of Science and Technology, priority 2005, dated 2012).

Experiment: Minimum gelation concentration / hydrogelation ability
Assay type: physicochemical
Text: In this embodiment, precursors bearing the general formula C10H7CH2C(O)—ZZ (where Z is the residue of an amino acid) was used.
For this precursor, it is possible to use the enzyme kinase/phosphatase pair as an enzyme switch because (i) FF is prone to self-assembly (ii) Nap-FF gels water effectively (at 0.8 wt %), and (iii) the residue of Glu-Tyr (EY) accepts phosphorylation in the presence of a tyrosine kinase and the phosphorylation process can be reversed by phosphatase.
One of the motivations to use naphthalene (Nap) rather than N-(fluorenyl-methoxycarbonyl) (FMOC) is that Nap should be more biocompatible, as evidenced by several clinical drugs consisting of a Nap motif (i. e., propranolol, naphazoline, nafronyl). The glycine (G) was used to connect Nap-FF with EY because glycine is the simplest amino acid. Unlike other pentapeptides, FFGEY is not a known epitope of any protein, but it carries the basic structural requirement to serve as the substrate of the tyrosine kinase. After obtaining precursor IIIa through solid-phase synthesis, the hydrogelation ability of IIIa was tested. Via a slight adjustment of pH (from 7.8 to 7.5), IIIa forms a transparent hydrogel in water at 0.6 wt %). The successful hydrogelation of IIIa implies that Nap-FF also may act as a useful motif to conjugate with other amino acid residues to construct hydrogelators. […]

minimum gelation concentration (mgc): ca. 0.4% | concentration at which a hydrogel forms in water (water): 0.8 wt %
Structure (SMILES): O=C(Cc1ccc2ccccc2c1)N[C@@H](Cc1ccccc1)C(=O)N[C@@H](Cc1ccccc1)C(=O)O [C10H7CH2C(O)-L-Phe-L-Phe]
